{
  "source": "patent US8293775B2",
  "about": "“Benzoxazolone derivatives, processes for preparing them and their uses” (UCB Pharma, S.A., priority 2004, dated 2012)",
  "system": "6-OHDA rat model",
  "assay": "Hemi-parkinsonian (6-OHDA lesioned) rat model: prolongation of L-DOPA-induced contralateral rotations",
  "details": "second hour post administration (61-120 min); L-DOPA 50 mg/kg i.p. with vehicle (DMSO, i.p.); male Sprague-Dawley rats",
  "data": [
    {"smiles": "N[C@@H](Cc1ccc(O)c(O)c1)C(=O)O", "note": "[L-Dopa, L-3,4-dihydroxyphenylalanine]", "values": [
      {"measurement": "total number of rotations observed with L-Dopa alone", "result": "less than 50 turns"}
    ]}
  ]
}
